Values joined by “and” are separate entries in the source; they are usually repeats but may differ in a detail not shown here. Equal entries are not always repeated. “Also recorded” adds a separate entry of the source.
Columns and labels:
[1] = 5 min p.i., literature value; cited from earlier work
S1P1 [2] = target: T1, S1P1 (Rattus norvegicus (Rat), UniProt P48303); assay: In vitro autoradiography of [18F]12a in rat brain slices, SEW2871 blocking; format: binding; conditions: rat brain sections, ~6 nM tracer, 10 μM SEW2871, 60 min RT
T1 sequence (P48303 whole entry): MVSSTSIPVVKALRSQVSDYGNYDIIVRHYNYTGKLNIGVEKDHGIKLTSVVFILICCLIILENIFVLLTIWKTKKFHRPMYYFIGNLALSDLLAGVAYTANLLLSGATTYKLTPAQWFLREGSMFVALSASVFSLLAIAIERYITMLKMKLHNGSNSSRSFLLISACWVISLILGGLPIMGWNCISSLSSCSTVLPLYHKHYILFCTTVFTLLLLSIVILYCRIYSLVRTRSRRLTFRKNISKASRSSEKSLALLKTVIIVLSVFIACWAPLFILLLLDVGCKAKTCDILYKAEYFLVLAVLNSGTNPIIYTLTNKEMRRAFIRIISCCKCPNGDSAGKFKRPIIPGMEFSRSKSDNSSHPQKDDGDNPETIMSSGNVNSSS
Description: Adult female Lewis rats (n=2, 100-125 g, Charles River) were used to perform the autoradiography study. The rats (n=2) was euthanized and the brains were collected and cut into 20 μm sequential sections using a Microm cryotome and mounted on glass slides. […] Following the incubation, the brain sections were washed and exposed to the Storage Phosphor Screen in an imaging cassette overnight in −20° C. at dark for 12 h. The distribution of radioactivity was visualized by a Fuji Bio-Imaging Analyzer FLA-7000 (Fuji Photo Film, Tokyo, Japan). Photo-stimulated luminescence (PSL) from the brain slices was quantified using Multi Gauge v3.0 software (Fuji Photo Film Co., Tokyo, Japan). Data were background-corrected, and expressed as photo-stimulated luminescence signals per square millimeter (PSL/mm^2).

[3] = Ex vivo biodistribution in female Lewis rats; set-up: species or system rat; conditions: for Tissue uptake, Blood / Tissue uptake, Bone / Tissue uptake, Brain / Tissue uptake, Fat / Tissue uptake, Heart / Tissue uptake, Kidney / Tissue uptake, Liver / Tissue uptake, Lung / Tissue uptake, Muscle / Tissue uptake, Pancreas / Tissue uptake, Spleen / Tissue uptake, Thymus: n = 4
Description: Organs of blood, heart, lung, muscle, fat, pancreas, spleen, kidney, liver, thymus, brain, and bone were dissected and collected for counting. All the samples were counted with a dilution of the injectate on an automated well counter (Beckman Gamma 8000 well counter). Tissues were weighed and the uptake was reported as background and decay-corrected percent injected dose per gram (% ID/g).
The whole brains were quickly harvested and dissected into regions of cerebellum, brain stem, cortex, striatum, thalamus, and hippocampus, the remainder of the brain was also collected to determine the total brain uptake. Organs of blood, heart, lung, muscle, fat, pancreas, spleen, kidney, liver, thymus, and bone were also dissected and collected for counting. All the samples were counted with a dilution of the injectate on an automated well counter (Beckman Gamma 8000 well counter). Tissues were weighed and the uptake was reported as background and decay-corrected percent injected dose per gram (% ID/g).

S1P1 [4] = target: T1, S1P1; assay: MicroPET and tracer kinetic modeling in EAE rat model, lumbar spinal cord; format: in vivo; conditions: for 2TCM Vd / LoganAIF Vd: lumbar spinal cord, n = 3-4
[5] = Nonhuman primate (NHP) brain microPET scan; format: in vivo, macaques; conditions: normal NHP
Description: To examine if newly-synthesized S1P1 radioligands could cross the BBB of NHPs, two male macaques (9-10 kg) were studied with a microPET Focus 220 scanner (Concorde/CTI/Siemens Microsystems, Knoxville, Tenn.). The welfare of the animals conformed to the requirements of National Institutes of Health (NIH). This work was conducted at the Nonhuman Primate Facility of Washington University in St. Louis with approval from the IACUC. Animals were maintained in facilities with 12-hour dark and light cycles, given access to food and water ad libitum and provided a variety of psychologically enriching tasks to prevent inappropriate deprivation. Animals were scanned under anesthesia (induced with ketamine and glycopyrrolate and maintained with inhalation isoflurane). Core temperature was kept about 37° C. with a heated water blanket. The head was secured in a head holder with the brain in the center of the field of view.
PET scans were collected from O-120 min with the following time frames: 3×1 min, 4×2 min, 3×3 min and 20×5 min. Emission data were corrected for dead time, scatter and attenuation and then reconstructed to a final resolution of 2.0 mm full-width half maximum in all 3 dimensions at the center of the field of view. PET and MRI images were co-registered using automated image registration program (AIR). For quantitative analyses, three-dimensional ROI (the global brain) was identified on the MRI and transformed to the reconstructed PET images to obtain time-activity curves. Activity measures were standardized to body weight and the dose of radioactivity injected to yield standardized uptake value (SUV).

O=C(O)C1CN(Cc2ccc(-c3noc(-c4ccc(OCC[18F])c(C(F)(F)F)c4)n3)cc2)C1 [[^18F]4]
Brain uptake of previous radiotracer [1]: 0.49 % ID/g

OCCOCc1ccc(-c2noc(-c3ccc(OCC[18F])c(C(F)(F)F)c3)n2)cc1 [[^18F]12a]
Reduction of radioactivity by SEW2871 blocking (S1P1 [2]): ~30%
Tissue uptake, Blood ([3]; 5 min p.i.): 0.36 % ID/g and 0.36 ± 0.04 % ID/g
Tissue uptake, Blood ([3]; 30 min p.i.): 0.51 ± 0.01 % ID/g
Tissue uptake, Blood ([3]; 60 min p.i.): 0.57 ± 0.03 % ID/g
Tissue uptake, Blood ([3]; 120 min p.i.): 0.66 ± 0.04 % ID/g
Tissue uptake, Bone ([3]; 5 min p.i.): 0.40 ± 0.04 % ID/g
Tissue uptake, Bone ([3]; 30 min p.i.): 0.34 ± 0.02 % ID/g
Tissue uptake, Bone ([3]; 60 min p.i.): 0.34 ± 0.01 % ID/g
Tissue uptake, Bone ([3]; 120 min p.i.): 0.42 ± 0.02 % ID/g
Tissue uptake, Brain ([3]; 5 min p.i.): 1.31 % ID/g and 1.31 ± 0.06 % ID/g
Tissue uptake, Brain ([3]; 30 min p.i.): 1.34 ± 0.08 % ID/g
Tissue uptake, Brain ([3]; 60 min p.i.): 1.13 ± 0.05 % ID/g
Tissue uptake, Brain ([3]; 120 min p.i.): 0.87 ± 0.04 % ID/g
Tissue uptake, Fat ([3]; 5 min p.i.): 0.24 % ID/g and 0.24 ± 0.03 % ID/g
Tissue uptake, Fat ([3]; 30 min p.i.): 1.63 ± 0.36 % ID/g
Tissue uptake, Fat ([3]; 60 min p.i.): 1.50 ± 0.08 % ID/g
Tissue uptake, Fat ([3]; 120 min p.i.): 1.91 ± 0.19 % ID/g
Tissue uptake, Heart ([3]; 5 min p.i.): 1.16 % ID/g and 1.16 ± 0.01 % ID/g
Tissue uptake, Heart ([3]; 30 min p.i.): 1.01 ± 0.08 % ID/g
Tissue uptake, Heart ([3]; 60 min p.i.): 0.85 ± 0.04 % ID/g
Tissue uptake, Heart ([3]; 120 min p.i.): 0.74 ± 0.03 % ID/g
Tissue uptake, Kidney ([3]; 5 min p.i.): 2.14 % ID/g and 2.14 ± 0.14 % ID/g
Tissue uptake, Kidney ([3]; 30 min p.i.): 1.43 % ID/g and 1.43 ± 0.08 % ID/g
Tissue uptake, Kidney ([3]; 60 min p.i.): 1.18 ± 0.04 % ID/g
Tissue uptake, Kidney ([3]; 120 min p.i.): 1.01 ± 0.04 % ID/g
Tissue uptake, Liver ([3]; 5 min p.i.): 4.87 % ID/g and 4.87 ± 0.27 % ID/g
Tissue uptake, Liver ([3]; 30 min p.i.): 3.58 % ID/g and 3.58 ± 0.28 % ID/g
Tissue uptake, Liver ([3]; 60 min p.i.): 3.32 ± 0.33 % ID/g
Tissue uptake, Liver ([3]; 120 min p.i.): 3.23 ± 0.10 % ID/g
Tissue uptake, Lung ([3]; 5 min p.i.): 1.31 % ID/g and 1.31 ± 0.01 % ID/g
Tissue uptake, Lung ([3]; 30 min p.i.): 1.20 ± 0.06 % ID/g
Tissue uptake, Lung ([3]; 60 min p.i.): 1.01 ± 0.04 % ID/g
Tissue uptake, Lung ([3]; 120 min p.i.): 0.87 ± 0.02 % ID/g
Tissue uptake, Muscle ([3]; 5 min p.i.): 0.28 % ID/g and 0.28 ± 0.02 % ID/g
Tissue uptake, Muscle ([3]; 30 min p.i.): 0.54 ± 0.01 % ID/g
Tissue uptake, Muscle ([3]; 60 min p.i.): 0.49 ± 0.03 % ID/g
Tissue uptake, Muscle ([3]; 120 min p.i.): 0.42 ± 0.01 % ID/g
Tissue uptake, Pancreas ([3]; 5 min p.i.): 2.19 % ID/g and 2.19 ± 0.04 % ID/g
Tissue uptake, Pancreas ([3]; 30 min p.i.): 1.52 % ID/g and 1.52 ± 0.04 % ID/g
Tissue uptake, Pancreas ([3]; 60 min p.i.): 1.21 ± 0.10 % ID/g
Tissue uptake, Pancreas ([3]; 120 min p.i.): 0.98 ± 0.05 % ID/g
Tissue uptake, Spleen ([3]; 5 min p.i.): 1.14 % ID/g and 1.14 ± 0.10 % ID/g
Tissue uptake, Spleen ([3]; 30 min p.i.): 0.79 % ID/g and 0.79 ± 0.06 % ID/g
Tissue uptake, Spleen ([3]; 60 min p.i.): 0.65 ± 0.02 % ID/g
Tissue uptake, Spleen ([3]; 120 min p.i.): 0.55 ± 0.03 % ID/g
Tissue uptake, Thymus ([3]; 5 min p.i.): 0.79 % ID/g and 0.79 ± 0.12 % ID/g
Tissue uptake, Thymus ([3]; 30 min p.i.): 0.68 ± 0.06 % ID/g
Tissue uptake, Thymus ([3]; 60 min p.i.): 0.58 ± 0.04 % ID/g
Tissue uptake, Thymus ([3]; 120 min p.i.): 0.51 ± 0.05 % ID/g
Defluorination in vivo (bone uptake 5 to 120 min) ([3]; bone radioactivity unchanged): no metabolic defluorination in vivo
Visualization of rat lumbar spinal cord by microPET (S1P1 [4]; EAE and sham rats): clear visualization of lumbar spinal cord
2TCM Vd (S1P1 [4]; EAE rats): 2.18 ± 0.20 mL/g
LoganAIF Vd (S1P1 [4]; EAE rats): 2.18 ± 0.20 mL/g
Tracer uptake in lumbar spinal cord, EAE (S1P1 [4]; EAE rats, summed SUV values 10-60 min post injection, n=3-4): 1.42±0.14 SUV
2TCM Vd (S1P1 [4]; Sham rats): 1.80 ± 0.20 mL/g
LoganAIF Vd (S1P1 [4]; Sham rats): 1.77 ± 0.24 mL/g
Increase of tracer uptake in EAE rat lumbar spinal cord compared with shams (S1P1 [4]; microPET, 10-60 min post injection): 29.5%
Averaged tracer uptake in sham rat spinal cord (S1P1 [4]; sham rats, 10-60 min post injection): 1.0-1.1
Tracer uptake in lumbar spinal cord, sham (S1P1 [4]; sham rats, summed SUV values 10-60 min post injection, n=3-4): 1.10±0.06 SUV
Max SUV value in total brain ([5]; microPET): ~2.9 SUV
Blood-brain barrier crossing, NHP brain ([5]; microPET, listed as 18F-TZ4877): able to cross the blood brain barrier; also recorded: able to cross the BBB
Time to max SUV in total brain ([5]; post injection): ~5 min
